US9504672B2, “Compositions and methods for treating or preventing pneumovirus infection and associated diseases” (MicroDose Therapeutx, Inc., priority 2012, dated 2016)
Where two headings read alike, the source gives them in different places.

Assays:
[1] = Competitive slurry stability study between P-2 and P-3 (PXRD quantitative phase analysis); assay type: physicochemical; details: 50/50 acetonitrile/water, 25° C., over 10 days
[2] = Slurry of equal mixture of six phases in 75/25 acetone-water (PXRD); assay type: physicochemical; details: 25° C., 12 days, listed as P-3
Experimental: An equal powder mixture of six known phases (P-2, P-3, P-4, P-6, P-7 and P-8), 50 mg each were stirred in 75/25 acetone-water solvent (50 mL) at 25° C. over 12 days.

[3] = Critical water activity by DVS sorption/desorption isotherms; assay type: physicochemical; details: 20° C.
From the text: The characteristic gravimetric loss of water is between 1-4.5% w/w.
The characteristic gravimetric loss of water for P-3 dihydrate is between 5.5-8.5% w/w. The profound difference of the DVS curves between the P-2 and P-3 forms can be utilized as a secondary technique for quantitative phase analysis of these forms.

[4] = Crystal (skeletal) density by nitrogen pycnometry; assay type: physicochemical
[5] = Particle size of micronized material (Sympatec HELOS & RODOS); assay type: physicochemical
[6] = Specific surface area (BET); assay type: physicochemical
[7] = Bulk powder density and flow indices (volumetric); assay type: physicochemical
[8] = Storage stability of micronized API in amber glass bottles (DSC, PXRD); assay type: physicochemical; details: 25° C./60% RH and 40° C./75% RH, through 12 months
Experimental: The micronized, P-3 dihydrate material was stored in 1.85 mL amber bottles with Teflon lined caps. The 25° C./60% RH and 40° C./75% RH simulated storage and worst-case storage conditions correspondingly.

[9] = Stability of lactose formulation at 40° C./75% RH, sealed glass bottles, 39 weeks; assay type: physicochemical; details: lactose formulation 6.3% w/w
Experimental: Formulation of the P-3 dihydrate form of the API with lactose (6.3% w/w) was placed on stability 40° C./75% RH in sealed glass bottles for 39 weeks. After samples removal, the lactose was removed by dissolution in purified water. The reference formulation was also subjected to the same lactose extraction procedure to eliminate the possibility for form conversion in water.

[10] = human, in vivo
From the text: (§1) In summary, the MicroDose Inhaler operation comprises the drug powder contained in a protective blister until delivery. The blister is pierced externally and then placed in contact with a piezoelectric vibrator within the MicroDose Inhaler. When the patient inhales, an airflow sensor automatically turns on the piezo which provides energy to deaggregate the particles of powder and aerosolizes them into the inhalation airstream, providing synchronized delivery. The MicroDose Inhaler was triggered by pressure drop and programmed to produce a series of brief aerosol bursts of predetermined duration within the range of 0.1 to 2.0 seconds, preferably 0.1 seconds, early during each inhalation cycle and for 16 consecutive breaths. The studies were conducted as follows:
Study 3: A Double-Blind, Randomized, 3 Period Crossover, Single Ascending Dose Study to Assess the Safety and Tolerability of Inhaled MDT-637 P3 in Subjects with Intermittent or Mild-to-Moderate Persistent Asthma (Asthma Trial)
The primary objective of Study 3 was to assess the safety and tolerability of MDT-637 P3 when inhaled by subjects with Intermittent, or Mild-to-Moderate Persistent, Asthma. A secondary objective of Study 3 was to determine the rate and extent of systemic absorption of MDT-637 and trough nasal wash MDT-637 drug concentrations following dry powder inhalation dosing.
Each subject was dosed on 3 separate days during the study. Each subject received an initial dose of placebo (Period 1), followed by random allocation at Period 2 to a single dose of nasally inhaled MDT-637 P3 or double blind placebo. After an observation and furlough period, subjects returned for Period 3 to receive three doses of study drug (MDT-637 P3 or placebo) over a single day as listed below. The study consisted of 5 visits: Visit 1 (Screening), Visits 2, 3 and 4 (Dosing), and Visit 5 (Follow up); subjects were furloughed from the clinic for 6 up to 14 days between Visits 3 and 4 and 7-8 days between Visit 4 and 5. Subjects who met all of the inclusion criteria and none of the exclusion criteria (Table 19, FIG. 29) at Visit 1 were eligible to return for Visit 2 within 42 days of screening. Subjects were admitted to the study center twice, once for Visit 2 and again for Visit 4. Visit 5, was a safety follow up (outpatient) visit.
The doses of MDT-637 P3 were determined based on previous clinical experience in Study 1. Both placebo and active were administered as a dry powder for nasal inhalation via a face mask using a MicroDose Inhaler device. At Visit 2, all 10 patients were dosed with placebo Once Daily. At Visit 3, subjects were randomly allocated so that 8 subjects were dosed with MDT-637 P3 Once Daily 66 mcg and 2 subjects received double blind placebo. At Visit 4, subjects were again randomly allocated so that 8 subjects were dosed with MDT-637 TID 132 mcg and 2 subjects received double blind placebo.
Pharmacokinetic variables (Cmax, Tmax, AUC, T1/2) were evaluated based on blood samples drawn at Visit 4.

[11] = in vivo
From the text: The purpose of the following studies was to assess the safety, tolerability, local and systemic pharmacokinetics of single and multiple doses of MDT-637 P3 in healthy volunteers and asthmatics.
as §1, with “breaths.” for “breaths. The studies were conducted as follows:”

[12] = for Total Imp/Deg: listed as P224-163-1; for number of impurity peaks: listed as P-3
Experimental: Forced degradation experiments consisted of placing solid samples of P-2 hydrate and P-3 dihydrate materials in sealed glass bottles at 120° C. for 7 days.

[13] = human, in vivo; remark: listed apart in the source
Experimental: The study consisted of 3 visits: Visit 1 (Screening), Visit 2 (Dosing) and Visit 3 (Follow up); subjects furloughed from the clinic between Visits 2 and 3.
Both active and matched placebo were administered via face mask inhalation from a proprietary delivery system (MicroDose inhaler).
Single doses were administered in the morning. TID doses will be administered at 6 hour intervals, with the 1st of the 3 doses administered in the morning.
Pharmacokinetic variables (Cmax, Tmax, AUC, T1/2) were evaluated based on blood samples drawn at Visit 2.

[14] = human, in vivo; remark: listed apart in the source
Experimental: (§2) Subjects were enrolled in cohorts of 12 subjects. […] The study consisted of 3 visits: Visit 1 (Screening), Visit 2 (Dosing), Visit 3 (Follow up) and subjects remained at the study site for pharmacokinetic (PK) sampling, spirometry, and safety assessments. […] Day 1 was the first day of dosing and Day 10 was the final day of dosing, following which subjects remained at the study site for 24 hours following the last dose for PK sampling and spirometry. Visit 3 was a follow-up visit, 7 to 10 days after the last dose. Cohorts were dosed as follows:
(§3) The first doses for twice daily (BID) and three times daily (TID) were administered in the morning, starting at approximately 0700 hours on each day of dosing. BID doses were administered at 12 hour intervals and TID doses were administered at 6 hour intervals each dose day.
(§4) Pharmacokinetic endpoints (Cmax, Tmax, AUC, T1/2) and dose proportionality was assessed based on a limited number of plasma samples following the first dose on Day 1 and last dose on Day 10
(§5) Pharmacokinetic variables (Cmax, Tmax, AUC, T1/2) were evaluated based on blood samples drawn following first dose (Days 1-2) and last dose (Days 10-11).

clinical = details: human, in vivo, 132 ug
Experimental: as §2, §3, §4, §5

[15] = 40° C./75% RH, 4 weeks

Cc1nnnn1/N=C/c1ccc(O)c(C(c2ccc(O)cc2)c2cc(/C=N/n3nnnc3C)ccc2O)c1 [P-3 dihydrate, phenol, 2,2′-[(4-hydroxyphenyl)methylene]bis[4-[[(5-methyl-1H-tetrazol-1-yl)imino]methyl]]]
form conversion in competitive slurry [1]: converts to P-2 | form conversion / stability in six-phase slurry [2]: convert to P-2 hydrate | transition point (monohydrate) ([3]; 1% RH steps, first of two transition points): approximately 3 % RH | transition point (dihydrate) ([3]; 1% RH steps, second of two transition points): ~13 % RH | Characteristic relative humidity of dehydration (20° C.) [3]: 3-17% | Crystal (skeletal) density [4]: 1.61 g/mL | Characteristic medium volume particle size (micronized) [5]: 1.5 μm | Specific surface area [6]: 11.0 m^2/g | Carr index [7]: 27.5% | Hausner ratio [7]: 1.38 | Poured bulk powder density [7]: 0.22 g/mL | Tapped bulk powder density [7]: 0.30 g/mL | change in form (DSC and PXRD) [8]: no change in form was observed | change of crystal form in formulation with lactose [9]: stable against solid-state conversion | clinically significant changes in labs, vital signs, ECGs, physical exams [10]: No clinically significant changes | clinically significant changes in pulmonary function / pulmonary AEs [10]: No clinically significant changes in pulmonary function or reports of pulmonary AEs | pharmacokinetics, asthmatic vs healthy population [10]: comparable between the healthy and asthmatic population | subjects reporting adverse events ([10]; 3 separate dosing days): 2/10 | subjects reporting no adverse events ([10]; 3 separate dosing days): 8/10 | clinically significant changes in ECG, laboratory values, vital signs or physical exam [11]: no clinically significant changes | pulmonary adverse events or changes in pulmonary function [11]: no pulmonary adverse events or changes in pulmonary function were observed | serious adverse events [11]: no serious adverse events were observed | systemic exposure [11]: highly consistent and low systemic exposure | Grand Total ([12]; 120C/7D): 99.8 Area % | Total Imp/Deg ([12]; 120C/7D): 6.49 Area % | Impurity/Degradation Product A ([12]; 7 days): 0.12 Area % | Impurity/Degradation Product B ([12]; 7 days): 3.60 Area % | Impurity/Degradation Product C ([12]; 7 days): 0.17 Area % | Impurity/Degradation Product D ([12]; 7 days): 0.48 Area % | Impurity/Degradation Product E ([12]; 7 days): 0.28 Area % | Impurity/Degradation Product F ([12]; 7 days): 0.08 Area % | Impurity/Degradation Product G ([12]; 7 days): 0.05 Area % | Impurity/Degradation Product H ([12]; 7 days): 0.43 Area % | Impurity/Degradation Product I ([12]; 7 days): 0.17 Area % | Impurity/Degradation Product K ([12]; 7 days): 0.13 Area % | Impurity/Degradation Product L ([12]; 7 days): 0.06 Area % | Impurity/Degradation Product M ([12]; 7 days): 0.09 Area % | Impurity/Degradation Product N ([12]; 7 days): 0.07 Area % | Impurity/Degradation Product O ([12]; 7 days): 0.37 Area % | Impurity/Degradation Product P ([12]; 7 days): 0.36 Area % | Impurity/Degradation Product Q ([12]; 7 days): 0.05 Area % | Grand Total ([12]; CTRL): 99.9 Area % | Total Imp/Deg ([12]; CTRL): 1.16 Area % | number of impurity peaks ([12]; control): 6 peaks | number of impurity peaks ([12]; stressed sample, 120° C. for 7 days): 16 peaks | changes in pulmonary function / pulmonary AEs [13]: No significant changes in pulmonary function or reports of pulmonary AEs | clinically significant changes in labs, vital signs, ECGs, physical exams [13]: No clinically significant changes | treatment emergent adverse event considered possibly related by PI [13]: Mild dizziness | nasal wash levels ([13]; 24 h): > MDT-637 P3's IC50 for RSV | CVs of PK exposure [14]: 15-30% | clinically significant changes in labs, vital signs, ECGs, physical exams [14]: No clinically significant changes | TEAEs considered related to study treatment ([14]; 10 days): 5 TEAEs | subjects reporting TEAEs ([14]; 10 days): 13 subjects | subjects reporting no TEAEs ([14]; 10 days): 25 subjects | total TEAEs overall ([14]; 10 days): 20 TEAEs | AUC(0-t) (clinical): 1.16 ng·h/mL | Assay ([15]; open dish, listed as P-3): 96.7% | Rel Subs ([15]; open dish, listed as P-3): 0.67% | Water ([15]; open dish, listed as P-3): 5.9% | change of form / solid-state stability (DSC and PXRD) ([15]; open wide glass bottles): no change of form | chemical stability ([15]; open wide glass bottles): Acceptable chemical stability
